Source: US6797731B2, “Resorcinol derivatives” (Pfizer Inc., priority 2000, dated 2004)

Target: T1, human tyrosinase (Homo sapiens, UniProt P14679)
T1 construct: endogenous in cells; host or cells: SKMEL 188 human melanoma cell line (lysate)
T1 sequence (P14679 19-529): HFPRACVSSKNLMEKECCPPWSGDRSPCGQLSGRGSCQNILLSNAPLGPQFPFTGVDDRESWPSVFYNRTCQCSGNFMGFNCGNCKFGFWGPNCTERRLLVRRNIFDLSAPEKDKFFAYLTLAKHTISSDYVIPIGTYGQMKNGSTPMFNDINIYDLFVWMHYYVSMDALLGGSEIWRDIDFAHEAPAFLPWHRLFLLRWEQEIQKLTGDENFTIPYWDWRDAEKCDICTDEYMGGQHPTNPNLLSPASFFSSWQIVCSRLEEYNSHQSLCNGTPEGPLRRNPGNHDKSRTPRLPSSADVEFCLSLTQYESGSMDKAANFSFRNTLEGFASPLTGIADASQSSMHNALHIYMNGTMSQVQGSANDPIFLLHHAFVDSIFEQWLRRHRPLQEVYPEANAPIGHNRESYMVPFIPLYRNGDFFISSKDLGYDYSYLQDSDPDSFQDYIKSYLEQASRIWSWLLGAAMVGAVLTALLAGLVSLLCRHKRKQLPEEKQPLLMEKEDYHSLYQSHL
Assay: Tyrosinase (DOPA oxidase) assay using cell lysate
Format: biochemical
Conditions: SKMEL 188 cell lysates; L-DOPA 100 μg/ml; incubated 8 hrs; read at 405 nm
Experimental: 1. Tyrosinase (DOPA Oxidase) Assay Using Cell Lysate:
Human melanoma cell line, SKMEL 188 (licensed from Memorial Sloan-Kettering), is used in the cell lysate assay and the screen. In the assay, compounds and L-dihydroxyphenylalanine (L-DOPA) (100 μg/ml) are incubated with the cell lysates containing human tyrosinase for 8 hrs before the plates are read at 405 nm.

- IC50: ~2000 nM
SMILES: N[C@H](Cc1ccccc1)C(=O)O[C@H]1CC[C@H](c2ccc(O)cc2O)CC1 [Example 22, trans-4-(2,4-Dihydroxyphenyl)cyclohexyl (2R)-2-amino-3-phenylpropanoate]
